Reference: US8658826B2, “Amino acid derivatives used as pharmaceutical substances” (Dritte Patentportfolio Beteiligungsgesellschaft mgH & Co. KG, priority 2008, dated 2014)

Experiment: oral bioavailability study with rats: benzamidine plasma levels after oral valbenzamidoxime
Format: in vivo, rat
Details: oral 50 mg/kg
Description: For proving the resorption from the gastrointestinal tract and the subsequent reduction to benzamidine, the valbenamidoxime is orally administered to three rats. The metabolization of the ester into benzamidine in this case takes place in vivo as follows:
The anaesthesia was carried out using xylazine and ketamine. Both were administered by intramuscular injection. The silicone catheters were implanted in the vena jugularis and the arteria carotis. They have locally antithrombotic and anti-inflammatory properties, but are not systemically active. During the surgery, the eyes were protected with a cornea-protective ointment (Oculotect®), and 3-4 ml of Ringer lactate solution was applied subcutaneously for improving the postoperative energy supply. The animals were treated antiphlogistically (Finadyne®, 1 mg/kg of body weight) and antibiotically (Amoxicillin® 15%, 10 mg/kg of body weight) and postoperatively attended and kept warm until they woke up. The day after the surgery, the animals got Nutri Plus®, an energy paste (soy bean oil, molasses, cod-liver oil, meat extract, mineral premixture, vitamin premixture).
Male Wistar rats having an average weight of 200 g served as the test animals. The animals were kept individually in cages. Every second day they got concentrated food. […]
For separating the substances to be analyzed, the following HPLC method was used: […]

## CC(C)C(N)C(=O)O/N=C(\N)c1ccccc1 (stereo not shown) [valbenzamidoxime]
  resorption of the prodrug after oral administration and metabolization into benzamidine: completely resorbed after oral administration and metabolized into the active form benzamidine
